One test addresses T1, caspase-1 (Homo sapiens, UniProt P29466).
T1 sequence (P29466 120-297 limits assumed): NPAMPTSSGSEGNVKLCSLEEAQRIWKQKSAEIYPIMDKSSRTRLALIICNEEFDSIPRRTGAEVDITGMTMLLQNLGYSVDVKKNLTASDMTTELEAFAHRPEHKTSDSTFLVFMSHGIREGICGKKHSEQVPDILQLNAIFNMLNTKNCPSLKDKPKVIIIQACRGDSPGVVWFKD
T1 sequence (P29466 317-404 limits assumed): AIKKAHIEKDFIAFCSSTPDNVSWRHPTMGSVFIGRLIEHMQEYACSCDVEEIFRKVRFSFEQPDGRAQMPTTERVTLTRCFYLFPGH
In words: cysteine protease selectivity, caspase-1. The class given is biochemical.

A further test concerns the target T2, USP2 (Homo sapiens, UniProt O75604).
T2 sequence (O75604 1-605): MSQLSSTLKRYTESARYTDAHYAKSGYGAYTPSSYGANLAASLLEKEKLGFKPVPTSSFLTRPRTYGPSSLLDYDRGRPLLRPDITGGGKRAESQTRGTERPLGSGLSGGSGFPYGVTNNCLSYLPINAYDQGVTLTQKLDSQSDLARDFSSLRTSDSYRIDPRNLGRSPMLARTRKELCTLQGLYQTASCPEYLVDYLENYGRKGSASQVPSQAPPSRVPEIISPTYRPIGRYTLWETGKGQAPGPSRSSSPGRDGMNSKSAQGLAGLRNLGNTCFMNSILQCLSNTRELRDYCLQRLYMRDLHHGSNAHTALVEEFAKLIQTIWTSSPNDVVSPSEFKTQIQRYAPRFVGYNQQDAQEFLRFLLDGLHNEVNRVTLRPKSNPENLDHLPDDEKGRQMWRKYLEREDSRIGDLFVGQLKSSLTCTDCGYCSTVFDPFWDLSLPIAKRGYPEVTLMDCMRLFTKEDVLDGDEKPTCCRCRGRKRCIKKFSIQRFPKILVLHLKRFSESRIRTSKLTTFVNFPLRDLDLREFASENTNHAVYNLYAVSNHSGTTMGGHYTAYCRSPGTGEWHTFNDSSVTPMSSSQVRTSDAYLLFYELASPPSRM
In words: K63-linked diubiquitin cleavage assay, USP2. The following applies: for IC50 USP2: NI = no significant inhibition at 114 μM.

The target of a further test is USP46/UAF1 (Homo sapiens, UniProt P62068). As to the kind of experiment: K63-linked diubiquitin cleavage assay, USP46/UAF1. The conditions noted are these: for IC50 USP46/UAF1: K63-linked diubiquitin substrate, NI = no significant inhibition at 114 μM. The class given is biochemical.
The target in another test is T3, USP5 (Homo sapiens, UniProt P45974).
T3 sequence (P45974 1-858): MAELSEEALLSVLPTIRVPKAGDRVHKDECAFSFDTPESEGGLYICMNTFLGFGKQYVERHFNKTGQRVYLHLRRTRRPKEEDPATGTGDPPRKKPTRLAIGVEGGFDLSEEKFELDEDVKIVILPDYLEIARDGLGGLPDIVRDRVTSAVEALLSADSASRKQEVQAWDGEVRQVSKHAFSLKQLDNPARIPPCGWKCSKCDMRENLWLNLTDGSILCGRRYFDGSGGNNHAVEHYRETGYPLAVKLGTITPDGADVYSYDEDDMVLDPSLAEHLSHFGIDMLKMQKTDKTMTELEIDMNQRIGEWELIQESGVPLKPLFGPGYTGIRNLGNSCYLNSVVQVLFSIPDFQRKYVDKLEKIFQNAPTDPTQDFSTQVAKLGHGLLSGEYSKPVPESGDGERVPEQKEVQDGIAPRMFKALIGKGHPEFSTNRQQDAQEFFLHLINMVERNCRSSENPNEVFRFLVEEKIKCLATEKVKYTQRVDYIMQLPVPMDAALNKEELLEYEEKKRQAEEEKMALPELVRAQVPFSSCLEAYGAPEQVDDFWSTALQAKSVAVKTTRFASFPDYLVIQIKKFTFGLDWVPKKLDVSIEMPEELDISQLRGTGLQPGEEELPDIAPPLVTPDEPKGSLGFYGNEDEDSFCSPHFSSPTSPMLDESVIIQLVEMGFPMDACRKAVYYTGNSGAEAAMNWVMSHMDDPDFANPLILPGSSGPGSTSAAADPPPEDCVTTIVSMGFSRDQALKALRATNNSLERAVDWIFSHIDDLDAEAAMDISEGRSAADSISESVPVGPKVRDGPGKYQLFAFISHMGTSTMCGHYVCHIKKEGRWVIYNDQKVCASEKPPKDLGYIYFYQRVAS
In words: K63-linked diubiquitin cleavage assay, USP5. The conditions noted are these: K63-linked diubiquitin substrate; NI = no significant inhibition at 114 μM.

A further test addresses T4, caspase-6 (Homo sapiens, UniProt P55212).
T4 sequence (P55212 24-179 limits assumed): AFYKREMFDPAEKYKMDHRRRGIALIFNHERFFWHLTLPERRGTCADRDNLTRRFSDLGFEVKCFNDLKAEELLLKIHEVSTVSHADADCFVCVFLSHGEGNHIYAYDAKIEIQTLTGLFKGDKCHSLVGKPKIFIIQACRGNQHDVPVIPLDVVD
T4 sequence (P55212 194-293 limits assumed): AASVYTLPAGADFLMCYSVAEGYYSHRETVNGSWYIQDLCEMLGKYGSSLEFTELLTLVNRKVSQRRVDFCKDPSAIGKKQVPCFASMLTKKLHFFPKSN
In words: cysteine protease selectivity, caspase-6. The class given is biochemical.

The next test addresses T5, caspase-3 (Homo sapiens, UniProt P42574).
T5 sequence (P42574 29-175 limits assumed): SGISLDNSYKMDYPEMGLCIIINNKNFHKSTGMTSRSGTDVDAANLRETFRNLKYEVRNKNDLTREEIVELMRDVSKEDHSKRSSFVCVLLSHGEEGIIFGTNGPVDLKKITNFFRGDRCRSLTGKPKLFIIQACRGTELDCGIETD
T5 sequence (P42574 176-277 limits assumed): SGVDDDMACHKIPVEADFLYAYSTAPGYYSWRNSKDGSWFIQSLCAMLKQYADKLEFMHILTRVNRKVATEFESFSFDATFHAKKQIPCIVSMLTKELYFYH
As to the kind of experiment: cysteine protease selectivity, caspase-3. It counts as biochemical.

In a further test the target is T6, papain (Carica papaya, UniProt P00784).
T6 sequence (P00784 134-345): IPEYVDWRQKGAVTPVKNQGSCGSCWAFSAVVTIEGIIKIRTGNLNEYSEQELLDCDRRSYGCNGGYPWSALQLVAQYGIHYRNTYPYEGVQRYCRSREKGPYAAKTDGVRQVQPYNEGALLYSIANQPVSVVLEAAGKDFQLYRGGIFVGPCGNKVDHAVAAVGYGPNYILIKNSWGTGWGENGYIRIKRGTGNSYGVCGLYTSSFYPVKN
As to the kind of experiment: cysteine protease selectivity, papain. It counts as biochemical.

In the next test the target is T7, UCH-L3 (Homo sapiens, UniProt P15374).
T7 sequence (P15374 1-230): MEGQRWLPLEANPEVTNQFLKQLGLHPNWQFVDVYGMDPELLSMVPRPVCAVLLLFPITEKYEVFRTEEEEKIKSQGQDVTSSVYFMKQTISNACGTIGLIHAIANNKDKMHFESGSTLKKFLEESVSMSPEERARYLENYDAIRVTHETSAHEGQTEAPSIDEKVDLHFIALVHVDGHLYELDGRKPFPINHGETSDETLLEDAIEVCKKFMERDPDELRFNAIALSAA
As to the kind of experiment: Ub-Rho assay, UCH-L3. The class given is biochemical.

Where [1] appears, read: K63-linked diubiquitin substrate.

Molecules are shown by their SMILES.

The values that follow come from article PMC3344384 (Chemistry & biology, 2011).

Usually IC50 stands for the midpoint of a concentration-inhibition curve. Read a low IC50 as inhibition by little substance.

Chain of USP46/UAF1 (P62068 whole entry): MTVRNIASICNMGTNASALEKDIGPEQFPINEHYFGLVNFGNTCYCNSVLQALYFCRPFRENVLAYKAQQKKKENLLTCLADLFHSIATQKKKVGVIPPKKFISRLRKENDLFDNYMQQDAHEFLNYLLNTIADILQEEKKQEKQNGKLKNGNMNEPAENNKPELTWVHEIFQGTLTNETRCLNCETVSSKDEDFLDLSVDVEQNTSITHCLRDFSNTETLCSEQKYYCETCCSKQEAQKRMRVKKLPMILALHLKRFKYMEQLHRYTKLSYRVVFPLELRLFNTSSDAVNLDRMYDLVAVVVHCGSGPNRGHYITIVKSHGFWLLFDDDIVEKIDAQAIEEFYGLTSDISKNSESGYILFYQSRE
Chain of USP46/UAF1 (Q8TAF3 whole entry partner): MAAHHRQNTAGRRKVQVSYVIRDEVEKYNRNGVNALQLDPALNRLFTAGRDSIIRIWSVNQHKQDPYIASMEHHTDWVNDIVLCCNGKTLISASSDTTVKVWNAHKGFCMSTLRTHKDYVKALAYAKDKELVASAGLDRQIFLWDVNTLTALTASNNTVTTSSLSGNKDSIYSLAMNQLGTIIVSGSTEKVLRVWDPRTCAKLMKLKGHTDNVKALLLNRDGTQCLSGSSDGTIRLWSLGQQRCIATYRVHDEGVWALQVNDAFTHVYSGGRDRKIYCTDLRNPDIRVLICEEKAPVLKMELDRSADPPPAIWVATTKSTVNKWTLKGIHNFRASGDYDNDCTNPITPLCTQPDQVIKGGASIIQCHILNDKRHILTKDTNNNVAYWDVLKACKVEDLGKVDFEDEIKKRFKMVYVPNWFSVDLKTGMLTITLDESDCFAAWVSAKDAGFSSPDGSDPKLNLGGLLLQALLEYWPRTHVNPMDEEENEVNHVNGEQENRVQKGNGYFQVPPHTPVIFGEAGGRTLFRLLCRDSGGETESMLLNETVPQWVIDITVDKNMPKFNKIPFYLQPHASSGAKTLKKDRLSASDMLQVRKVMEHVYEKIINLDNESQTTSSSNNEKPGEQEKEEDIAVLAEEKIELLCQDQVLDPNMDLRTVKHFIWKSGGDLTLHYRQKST

As to `O=c1[nH]c2ccccc2n1C1CCN(CCCC(c2ccc(F)cc2)c2ccc(F)cc2)CC1` [Pimozide, pimozide], the IC50 against caspase-1 was above 250 µM; against caspase-6, above 250 µM; at caspase-3 it was above 250 µM; at papain, above 250 µM; at UCH-L3, above 500 µM. Further, the “IC50 USP2” value at USP2 (setting [1]) is reported as “No inhibition”. Further, the “IC50 USP46/UAF1” value on USP46/UAF1 is recorded as “did not inhibit”. Moreover, at USP5, the “IC50 USP5” value was “No inhibition”.

Regarding `OCCN1CCN(CCC=C2c3ccccc3Sc3ccc(C(F)(F)F)cc32)CC1` [Flupenthixol, flupenthixol], the IC50 against caspase-1 was above 250 µM; against caspase-6 it was above 250 µM; on caspase-3, above 250 µM; against papain, above 250 µM; against UCH-L3, above 500 µM. For the same compound, at USP2 (setting [1]), the “IC50 USP2” value is “no inhibition”. The “IC50 USP46/UAF1” value against USP46/UAF1 is recorded as “did not inhibit”. Besides, on USP5, the “IC50 USP5” value is given as “no inhibition”.

As to `CC(C)(Sc1ccc(CCN(CCCCC2CCCCC2)C(=O)NC2CCCCC2)cc1)C(=O)O` [GW7647], the IC50 was 42 µM against caspase-1; above 114 µM against USP2; 12 ± 1 µM at USP46/UAF1; 21 µM at caspase-6; above 250 µM against caspase-3; around 130 µM on papain. On UCH-L3, this compound yielded an IC50 above 200 µM. Besides, the “IC50 for USP2, fold higher than that for USP1/UAF1” value against USP2 (setting [1]) is recorded as “more than 23 fold”. For the same compound, the “IC50 USP5” value against USP5 is on record as “did not inhibit”.

With `CN1CCN(CCCN2c3ccccc3Sc3ccc(C(F)(F)F)cc32)CC1` [Trifluoperazine, trifluoperazine], the IC50 was above 250 µM against caspase-1; above 250 µM on caspase-6; above 250 µM at caspase-3; around 130 µM on papain; above 500 µM on UCH-L3. In addition, the “IC50 USP2” value against USP2 (setting [1]) was “no inhibition”. On USP46/UAF1, the “IC50 USP46/UAF1” value is “did not inhibit”. For the same compound, the “IC50 USP5” value at USP5 was “no inhibition”.
